According to patent publication US20220332700A1, “NOVEL APOPTOSIS SIGNAL-REGULATING KINASE 1 INHIBITORS” (MANKIND PHARMA LTD, priority 2019, published 2022):

Experiments:
[1] = biological target: T1, recombinant ASK1 (Homo sapiens, UniProt Q99683); experiment: ASK1 Biochemical Assay (HTRF KinEASE-STK S3); details: ATP 100 μM; read-out: Biochemical Assay IC50
T1 construct: purchased Carna Biosciences
In short: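 Recombinant ASK1 (5 ng) preincubated with compound 1 h at 23 °C in MOPS pH 7 buffer with Mg-acetate, DTT, NP40, glycerol, BSA and 1% DMSO. Inhibition calculated against vehicle after substrate-blank subtraction.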

[2] = biological target: T2, Human ASK1 (Homo sapiens, UniProt Q99683); experiment: ASK1 Cell Based Assay (phospho p38 read out in hASK1 transfected HEK293T-AP1 cells); details: HEK293T-AP1 cells, 1 mM hydrogen peroxide, phospho p38; read-out: Cell Based Assay IC50
T2 construct: expressed in transfected cells; host or cells: HEK293T-AP1
T2 sequence (Q99683 1-1374): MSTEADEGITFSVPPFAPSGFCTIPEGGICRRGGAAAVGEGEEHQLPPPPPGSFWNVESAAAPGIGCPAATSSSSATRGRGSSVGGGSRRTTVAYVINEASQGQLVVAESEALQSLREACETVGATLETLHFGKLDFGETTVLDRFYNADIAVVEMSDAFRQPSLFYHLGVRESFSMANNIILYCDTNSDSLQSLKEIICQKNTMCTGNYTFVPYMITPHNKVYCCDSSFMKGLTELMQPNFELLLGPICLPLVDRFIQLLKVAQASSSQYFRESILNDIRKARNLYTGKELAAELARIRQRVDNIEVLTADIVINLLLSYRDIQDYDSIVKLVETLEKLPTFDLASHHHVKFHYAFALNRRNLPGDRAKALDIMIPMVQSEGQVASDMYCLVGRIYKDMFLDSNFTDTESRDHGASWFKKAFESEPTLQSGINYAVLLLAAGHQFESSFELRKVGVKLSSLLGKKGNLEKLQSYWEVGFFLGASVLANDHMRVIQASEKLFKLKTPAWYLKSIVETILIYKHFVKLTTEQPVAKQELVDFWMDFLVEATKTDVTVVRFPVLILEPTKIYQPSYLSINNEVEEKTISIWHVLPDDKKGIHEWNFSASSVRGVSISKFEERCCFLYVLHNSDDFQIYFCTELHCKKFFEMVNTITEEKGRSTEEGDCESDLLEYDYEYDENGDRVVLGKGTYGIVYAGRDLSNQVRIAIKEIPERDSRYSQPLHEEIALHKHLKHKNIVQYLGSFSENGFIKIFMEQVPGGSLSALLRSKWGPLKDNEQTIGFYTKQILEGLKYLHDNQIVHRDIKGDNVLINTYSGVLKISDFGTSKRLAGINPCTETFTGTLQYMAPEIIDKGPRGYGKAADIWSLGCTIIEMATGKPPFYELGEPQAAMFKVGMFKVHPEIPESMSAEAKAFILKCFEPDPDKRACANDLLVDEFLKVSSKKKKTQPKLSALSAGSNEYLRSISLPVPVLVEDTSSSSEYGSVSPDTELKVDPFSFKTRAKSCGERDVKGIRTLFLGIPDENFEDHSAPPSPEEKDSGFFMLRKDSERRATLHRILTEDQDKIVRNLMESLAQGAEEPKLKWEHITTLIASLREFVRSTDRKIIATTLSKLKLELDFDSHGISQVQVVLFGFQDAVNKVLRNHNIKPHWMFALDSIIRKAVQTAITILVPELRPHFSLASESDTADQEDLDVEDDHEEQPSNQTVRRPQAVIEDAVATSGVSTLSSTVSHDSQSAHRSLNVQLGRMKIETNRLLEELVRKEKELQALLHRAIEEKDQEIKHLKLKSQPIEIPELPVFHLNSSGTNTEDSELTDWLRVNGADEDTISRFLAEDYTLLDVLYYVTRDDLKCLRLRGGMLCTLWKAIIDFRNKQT
In short: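 HEK293T-AP1 cells transfected with hASK1, after 24 h treated with compounds for 24 h (0.2% DMSO), then stimulated with 1 mM H2O2 for 1 h with compounds present.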

SMILES | IC50 [1] [nM] | IC50 [2] [nM]
CC(C)n1cnnc1-c1cccc(N2CCN(c3ccc(N4CC(C(N)=O)C4)nc3)C2=O)n1 [Example 1115, 1-(5-(3-(6-(4-isopropyl-4H-1,2,4-triazol-3-yl)pyridin-2-yl)-2-oxoimidazolidin-1-yl)pyridin-2-yl)azetidine-3-carboxamide] | < 100 | > 1000
CNC(=O)C1CCN(c2ccc(N3CCN(c4cccc(-c5nncn5C(C)C)n4)C3=O)cn2)CC1 [Example 1116, 1-(5-(3-(6-(4-isopropyl-4H-1,2,4-triazol-3-yl)pyridin-2-yl)-2-oxoimidazolidin-1-yl)pyridin-2-yl)-N-methylpiperidine-4-carboxamide] | < 50 | < 100
COCCCNc1ccc(N2CCN(c3cccc(-c4nncn4C(C)C)n3)C2=O)cn1 [Example 1118, 1-(6-(3-methoxypropylamino)pyridin-3-yl)-3-(6-(4-isopropyl-4H-1,2,4-triazol-3-yl)pyridin-2-yl)imidazolidin-2-one] | < 100 | > 1000
CC(C)n1cnnc1-c1cccc(N2CCN(c3ccc(S(C)(=O)=O)s3)C2=O)n1 [Example 1123, 1-(6-(4-isopropyl-4H-1,2,4-triazol-3-yl)pyridin-2-yl)-3-(5-(methylsulfonyl)thiophen-2-yl)imidazolidin-2-one] | > 100 | > 1000
CC(C)n1cnnc1-c1cccc(N2CCN(c3ccc4c(c3)C(C)(C)CS4(=O)=O)C2=O)n1 [Example 1124, 1-(3,3-dimethyl-1,1-dioxido-2,3-dihydrobenzo[b]thiophen-5-yl)-3-(6-(4-isopropyl-4H-1,2,4-triazol-3-yl)pyridin-2-yl)imidazolidin-2-one] | < 100 | > 1000
CC(C)n1cnnc1-c1cccc(N2CCN(c3ccc4c(ccn4C)c3)C2=O)n1 [Example 1125, 1-(6-(4-isopropyl-4H-1,2,4-triazol-3-yl)pyridin-2-yl)-3-(1-methyl-1H-indol-5-yl)imidazolidin-2-one] | < 100 | > 1000
CC(C)n1cnnc1-c1cccc(N2CCN(c3ccc(OCCS(C)(=O)=O)cc3)C2=O)n1 [Example 1126, 1-(4-(2-(methylsulfonyl)ethoxy)phenyl)-3-(6-(4-isopropyl-4H-1,2,4-triazol-3-yl)pyridin-2-yl)imidazolidin-2-one] | < 100 | > 1000
CNC(=O)C1CCN(Cc2ccc(N3CCN(c4cccc(-c5nncn5C(C)C)n4)C3=O)cc2)CC1 [Example 1128, 1-(4-(3-(6-(4-isopropyl-4H-1,2,4-triazol-3-yl)pyridin-2-yl)-2-oxoimidazolidin-1-yl)benzyl)-N-methylpiperidine-4-carboxamide] | < 100 | > 1000
CC(C)C(c1ccc(N2CCN(c3cccc(-c4nncn4C(C)C)n3)C2=O)cc1)N1CCOCC1 (centres unmarked) [Example 1129, 1-(6-(4-isopropyl-4H-1,2,4-triazol-3-yl)pyridin-2-yl)-3-(4-(2-methyl-1-morpholinopropyl)phenyl)imidazolidin-2-one] | < 100 | > 1000
CNC(=O)[C@@H]1CCN(c2ccc(N3CCN(c4cccc(-c5nncn5C(C)C)n4)C3=O)cc2)C1 [Example 1130, (R)-1-(4-(3-(6-(4-isopropyl-4H-1,2,4-triazol-3-yl)pyridin-2-yl)-2-oxoimidazolidin-1-yl)phenyl)-N-methylpyrrolidine-3-carboxamide] | < 50 | < 100
CNC(=O)C1CC2CCC(C1)N2c1ccc(N2CCN(c3cccc(-c4nncn4C(C)C)n3)C2=O)cc1 (centres unmarked) [Example 1140, 8-(4-(3-(6-(4-isopropyl-4H-1,2,4-triazol-3-yl)pyridin-2-yl)-2-oxoimidazolidin-1-yl)phenyl)-N-methyl-8-aza-bicyclo[3.2.1]octane-3-carboxamide] | < 50 | < 100

Continued, values first:

IC50 [1] [nM] | IC50 [2] [nM] | SMILES
< 100 | 1560 | CNC(=O)[C@H]1CCN(c2ccc(N3CCN(c4cccc(-c5nncn5C(C)C)n4)C3=O)cc2)C1 [Example 1131, (S)-1-(4-(3-(6-(4-isopropyl-4H-1,2,4-triazol-3-yl)pyridin-2-yl)-2-oxoimidazolidin-1-yl)phenyl)-N-methylpyrrolidine-3-carboxamide]
< 100 | > 1000 | CC(C)n1cnnc1-c1cccc(N2CCN(c3ccc(NC4CCOC4)cc3)C2=O)n1 (centres unmarked) [Example 1133, 1-(6-(4-isopropyl-4H-1,2,4-triazol-3-yl)pyridin-2-yl)-3-(4-(tetrahydrofuran-3-ylamino)phenyl)imidazolidin-2-one]
< 100 | > 1000 | CC(C)C(C#N)C1CN(c2ccc(N3CCN(c4cccc(-c5nncn5C(C)C)n4)C3=O)cc2)C1 (centres unmarked) [Example 1134, 2-(1-(4-(3-(6-(4-isopropyl-4H-1,2,4-triazol-3-yl)pyridin-2-yl)-2-oxoimidazolidin-1-yl)phenyl)azetidin-3-yl)-3-methylbutanenitrile]
< 100 | > 1000 | CC(C)n1cnnc1-c1cccc(N2CCN(c3ccc(N4CCN(C)C(=O)C4)cc3)C2=O)n1 [Example 1135, 4-(4-(3-(6-(4-isopropyl-4H-1,2,4-triazol-3-yl)pyridin-2-yl)-2-oxoimidazolidin-1-yl)phenyl)-1-methylpiperazin-2-one]
< 100 | > 100 | CNC(=O)N1CCN(c2ccc(N3CCN(c4cccc(-c5nncn5C(C)C)n4)C3=O)cc2)CC1 [Example 1136, 4-(4-(3-(6-(4-isopropyl-4H-1,2,4-triazol-3-yl)pyridin-2-yl)-2-oxoimidazolidin-1-yl)phenyl)-N-methylpiperazine-1-carboxamide]
< 100 | > 100 | CC(C)n1cnnc1-c1cccc(N2CCN(c3ccc(N4CCN(C(=O)CC#N)CC4)cc3)C2=O)n1 [Example 1137, 3-(4-(4-(3-(6-(4-isopropyl-4H-1,2,4-triazol-3-yl)pyridin-2-yl)-2-oxoimidazolidin-1-yl)phenyl)piperazin-1-yl)-3-oxopropanenitrile]
< 100 | > 100 | CC(C)n1cnnc1-c1cccc(N2CCN(c3ccc(N4CCC(F)CC4)cc3)C2=O)n1 [Example 1138, 1-(4-(4-fluoropiperidin-1-yl)phenyl)-3-(6-(4-isopropyl-4H-1,2,4-triazol-3-yl)pyridin-2-yl)imidazolidin-2-one]
< 100 | > 100 | CNC1(C2CCN(c3ccc(N4CCN(c5cccc(-c6nncn6C(C)C)n5)C4=O)cc3)CC2)COC1 [Example 1139, 1-(6-(4-isopropyl-4H-1,2,4-triazol-3-yl)pyridin-2-yl)-3-(4-(4-(3-(methylamino)oxetan-3-yl)piperidin-1-yl)phenyl)imidazolidin-2-one]
